We go through 48 compounds from US10131649B2, “Bicyclic compounds as pest control agents” (BAYER CROPSCIENCE AKTIENGESELLSCHAFT, priority 2014, dated 2018).

Series [1] has as its system green peach aphid (Myzus persicae). The series can be described thus: Myzus persicae spray test (Chinese cabbage leaf discs). It counts as in vivo. Particulars: foliar, 144 h, read-out: efficacy in %. On the procedure:
Myzus persicae—Spray Test
Solvent: • 78 parts by weight of acetone • 1.5 parts by weight of dimethylformamide
Emulsifier: alkylaryl polyglycol ether
To produce a suitable preparation of active compound, 1 part by weight of active compound is dissolved using the specified parts by weight of solvent and made up with water containing an emulsifier concentration of 1000 ppm until the desired concentration is attained. To produce further test concentrations, the formulation is diluted with emulsifier-containing water.
Discs of Chinese cabbage leaves (Brassica pekinensis) infested by all stages of the green peach aphid (Myzus persicae) are sprayed with an active compound formulation of the desired concentration.
After 6 days, the efficacy in % is determined. 100% means that all the aphids have been killed; 0% means that no aphids have been killed.

Series [2] in a line: log P by HPLC on reversed-phase columns (OECD Guideline 117), [a] acidic pH 2.7, [b] neutral pH 7.8. It counts as physicochemical. As to conditions: reversed-phase (C18) HPLC column. As for the experimental part: The log P values were determined in accordance with OECD Guideline 117 (EC Directive 92/69/EEC) by HPLC (high-performance liquid chromatography) using reversed-phase (RP) columns (C18), by the following methods:
[a] The LC-MS determination in the acidic range is carried out at pH 2.7 with 0.1% aqueous formic acid and acetonitrile (contains 0.1% formic acid) as eluents; linear gradient from 10% acetonitrile to 95% acetonitrile.
[b] LC-MS determination in the neutral range is effected at pH 7.8 with 0.001 molar aqueous ammonium hydrogencarbonate solution and acetonitrile as eluents; linear gradient from 10% acetonitrile to 95% acetonitrile.
Calibration is carried out using unbranched alkan-2-ones (having 3 to 16 carbon atoms) with known log P values (log P values determined on the basis of the retention times by linear interpolation between two successive alkanones).

Where [3] appears, read: acidic pH 2.7, read-out: logP[a].
[4] abbreviates: neutral pH 7.8, read-out: logP[b].

Where two headings read alike, the source gives them in different places.

For `CN(CC(F)(F)F)C(=O)c1ccc2nn(-c3cccnc3)cc2c1` [Example 90], in series [1], the pest or weed control at 500 g/ha amounted to 90%. Besides, the chromatographic logP came to 1.84 in series [2] (setting [3]) and 1.87 in series [2] (setting [4]).

Consider `O=C(NCC(F)F)c1ccc2nn(-c3cncnc3)cc2c1` [Example 30], for which, in series [1], the pest or weed control at 500 g/ha was found to be 100%.

As for `O=C(NCC(F)(F)F)c1ccc2nn(-c3cncc(F)c3)cc2c1` [Example 19], the pest or weed control at 500 g/ha in series [1] turned out to be 90%.

Regarding `Cn1ccc(-c2ccc3nn(-c4cccnc4)cc3c2)n1` [Example 71], in series [1], the pest or weed control at 500 g/ha worked out at 90%. Besides, the chromatographic logP in series [2] (setting [3]) stood at 1.58.

Take `CN(CC(F)F)C(=O)c1ccc2nn(-c3cccnc3)cc2c1` [Example 86]: the pest or weed control at 500 g/ha in series [1] is 100%. Moreover, the chromatographic logP in series [2] (setting [3]) and in series [2] (setting [4]) was 1.55 in each case.

Consider `Cc1cccc(-c2ccc3nn(-c4cccnc4)cc3c2)n1` [Example 64], for which the pest or weed control at 500 g/ha in series [1] was determined as 90%. Further, the chromatographic logP in series [2] (setting [3]) was found to be 1.06; in series [2] (setting [4]) it was 2.41.

As for `CN(C)C(=O)c1ccc2nn(-c3cncc(F)c3)cc2c1` [Example 18], the pest or weed control at 500 g/ha in series [1] came out at 90%.

`Cc1ccc(C(=O)N(C)c2ccc3nn(-c4cncc(F)c4)cc3c2)cc1[S+]([O-])CC(F)(F)F` (centres unmarked) [Example 114]: in series [1], the pest or weed control at 500 g/ha is 90%.

In the case of `CCSc1ccc(-c2ccc3nn(-c4cccnc4)cc3c2)nc1` [Example 80], in series [1], the pest or weed control at 500 g/ha stood at 100%. The chromatographic logP came to 2.87 in series [2] (setting [3]) and 3.03 in series [2] (setting [4]).

Consider `Cc1ccc(C(=O)N(C)c2ccc3nn(-c4cccnc4)cc3c2)cc1[S+]([O-])CC(F)(F)F` (centres unmarked) [Example 115], for which the pest or weed control at 500 g/ha in series [1] is 100%.

Turning to `O=C(NCC(F)(F)F)c1ccc2nn(-c3cncnc3)cc2c1` [Example 26], in series [1], the pest or weed control at 100 g/ha was 90%.

For the compound `CN(C(=O)CC(C)(F)F)c1ccc2nn(-c3cncc(F)c3)cc2c1` [Example 113], the pest or weed control at 500 g/ha in series [1] was 90%.

As to `c1ccc(-c2ccc3nn(-c4cccnc4)cc3c2)nc1` [Example 59, 5-(2-Pyridyl)-2-(3-pyridyl)indazole], the pest or weed control at 100 g/ha in series [1] came to 90%. Also, the chromatographic logP came out at 1.13 in series [2] (setting [3]) and 1.93 in series [2] (setting [4]).

For the compound `CN(C(=O)c1ccc2nn(-c3cccnc3)cc2c1)C1CC1` [Example 75, N-Cyclopropyl-N-methyl-2-(pyridin-3-yl)-2H-indazole-5-carboxamide], the pest or weed control at 500 g/ha in series [1] was 90%. The chromatographic logP in series [2] (setting [3]) came out at 1.47; in series [2] (setting [4]) it was 1.5.

For `Cn1cc(-c2ccc3nn(-c4cccnc4)cc3c2)cn1` [Example 58, 5-(1-Methylpyrazol-4-yl)-2-(3-pyridyl)indazole], the pest or weed control at 500 g/ha in series [1] was determined as 90%. The chromatographic logP in series [2] (setting [3]) worked out at 1.51; in series [2] (setting [4]), 1.57.

Consider `Cc1ccc(-c2ccc3nn(-c4cccnc4)cc3c2)cc1[S+]([O-])CC(F)(F)F` (centres unmarked) [Example 53, 5-[4-Methyl-3-(2,2,2-trifluoroethylsulphinyl)phenyl]-2-(3-pyridyl)indazole], for which the pest or weed control at 500 g/ha in series [1] amounted to 90%. The results for the chromatographic logP in series [2] (setting [3]) and in series [2] (setting [4]) were 2.72 and 2.68, respectively.

For `CSCCC(=O)N(C)c1ccc2nn(-c3cccnc3)cc2c1` [Example 111], the pest or weed control at 500 g/ha in series [1] is 90%.

For the compound `Cc1ccc(NC(=O)c2ccc3nn(-c4cccnc4)cc3c2)cc1[S+]([O-])CC(F)(F)F` (centres unmarked) [Example 94, N-{4-Methyl-3-[(2,2,2-trifluoroethyl)sulphinyl]phenyl}-2-(pyridin-3-yl)-2H-indazole-5-carboxamide], in series [1], the pest or weed control at 500 g/ha was 90%. Besides, the chromatographic logP in series [2] (setting [3]) and in series [2] (setting [4]) was 2.23 each time.

On to `c1cnc(-c2ccc3nn(-c4cccnc4)cc3c2)nc1` [Example 60, 2-(3-Pyridyl)-5-pyrimidin-2-yl-indazole], for which, in series [1], the pest or weed control at 500 g/ha came out at 90%. For the same compound, the chromatographic logP turned out to be 1.72 in series [2] (setting [3]) and 1.73 in series [2] (setting [4]).

On to `CN(C(=O)CC[S+](C)[O-])c1ccc2nn(-c3cncc(F)c3)cc2c1` (centres unmarked) [Example 121], for which the pest or weed control at 500 g/ha in series [1] was found to be 100%.

In the case of `Fc1ccnc(-c2ccc3nn(-c4cccnc4)cc3c2)c1` [Example 101], the pest or weed control at 500 g/ha in series [1] is 90%. In addition, the results for the chromatographic logP in series [2] (setting [3]) and in series [2] (setting [4]) were 2.04 and 2.21, respectively.

Consider `O=C(c1ccc2nn(-c3cccnc3)cc2c1)N1CCS(=O)(=O)CC1` [Example 93], for which the chromatographic logP stood at 0.87 in series [2] (setting [3]) and 1.03 in series [2] (setting [4]).

As for `Cc1ccc(C(=O)N(C)c2ccc3nn(-c4cnn(C)c4)cc3c2)cc1[S+]([O-])CC(F)(F)F` (centres unmarked) [Example 116], in series [1], the pest or weed control at 500 g/ha worked out at 90%.

As for `CNC(=O)c1ccc2nn(-c3cncnc3)cc2c1` [Example 31], in series [1], the pest or weed control at 500 g/ha turned out to be 90%.

Turning to `O=C(c1ccc2nn(-c3cccnc3)cc2c1)N1CCCC1` [Example 88], in series [1], the pest or weed control at 500 g/ha is 100%. In addition, the chromatographic logP in series [2] (setting [3]) was determined as 1.43; in series [2] (setting [4]) it was 1.48.

As to `Cc1ccc(NC(=O)c2ccc3nn(-c4cccnc4)cc3c2)cc1SCC(F)(F)F` [Example 82], the pest or weed control at 500 g/ha in series [1] stood at 90%. The chromatographic logP was 3.22 in series [2] (setting [3]) and 3.15 in series [2] (setting [4]).

For the compound `CN(C)C(=O)c1ccc2nn(-c3cncnc3)cc2c1` [Example 27], in series [1], the pest or weed control at 500 g/ha amounted to 90%.

Turning to `CSCCC(=O)N(C)c1ccc2nn(-c3cncc(F)c3)cc2c1` [Example 108], the pest or weed control at 500 g/ha in series [1] was found to be 100%.

Regarding `CCNC(=O)c1ccc2nn(-c3cncnc3)cc2c1` [Example 29], the pest or weed control at 100 g/ha in series [1] was 90%.

`Cc1cc(C)c([S+]([O-])CC(F)(F)F)cc1NC(=O)c1ccc2nn(-c3cccnc3)cc2c1` (centres unmarked) [Example 97]: the pest or weed control at 500 g/ha in series [1] was determined as 100%. The chromatographic logP amounted to 2.2 in series [2] (setting [3]) and 2.22 in series [2] (setting [4]).

On to `CN(C(=O)CCS(C)(=O)=O)c1ccc2nn(-c3cccnc3)cc2c1` [Example 129], for which the pest or weed control at 500 g/ha in series [1] stood at 90%.

As to `CN(C)C(=O)c1ccc2nn(-c3cccnc3)cc2c1` [Example 1], the pest or weed control at 500 g/ha in series [1] was determined as 100%.

Take `C[S+]([O-])Cn1cc(-c2ccc3nn(-c4cccnc4)cc3c2)cn1` (centres unmarked) [Example 74]: in series [1], the pest or weed control at 500 g/ha is 100%. Also, the chromatographic logP is 1.17 in series [2] (setting [3]) and 1.19 in series [2] (setting [4]).

With `Cc1cc(F)c(NC(=O)c2ccc3nn(-c4cccnc4)cc3c2)cc1SCC(F)(F)F` [Example 91], the pest or weed control at 100 g/ha in series [1] was found to be 90%. In addition, the chromatographic logP in series [2] (setting [3]) was determined as 3.22; in series [2] (setting [4]), 3.12.

`Cn1cc(-n2cc3cc(C(=O)NCC(F)(F)F)ccc3n2)cn1` [Example 37]: the pest or weed control at 500 g/ha in series [1] came out at 90%.

Turning to `c1cncc(-n2cc3cc(-c4cn[nH]c4)ccc3n2)c1` [Example 98, 5-(1H-Pyrazol-4-yl)-2-(pyridin-3-yl)-2H-indazole], the chromatographic logP came to 1.27 in series [2] (setting [3]) and 1.3 in series [2] (setting [4]).

On to `CSCC(C)C(=O)N(C)c1ccc2nn(-c3cccnc3)cc2c1` (centres unmarked) [Example 110], for which, in series [1], the pest or weed control at 500 g/ha stood at 90%.

Consider `CC(CS(C)(=O)=O)C(=O)N(C)c1ccc2nn(-c3cccnc3)cc2c1` (centres unmarked) [Example 130], for which the pest or weed control at 500 g/ha in series [1] was determined as 90%.

As to `CSCC(C)C(=O)N(C)c1ccc2nn(-c3cncc(F)c3)cc2c1` (centres unmarked) [Example 109], the pest or weed control at 500 g/ha in series [1] came out at 100%.

For the compound `CN(C(=O)CC(C)(F)F)c1ccc2nn(-c3cccnc3)cc2c1` [Example 112], in series [1], the pest or weed control at 500 g/ha was 100%.

As to `CON(C)C(=O)c1ccc2nn(-c3cncnc3)cc2c1` [Example 32], the pest or weed control at 500 g/ha in series [1] came to 100%.

On to `Cc1cc(F)c(C(=O)N(C)c2ccc3nn(-c4cncc(F)c4)cc3c2)cc1[S+]([O-])CC(F)(F)F` (centres unmarked) [Example 118], for which, in series [1], the pest or weed control at 500 g/ha is 90%.

As for `CC(F)(F)CNC(=O)c1ccc2nn(-c3cncnc3)cc2c1` [Example 33], the pest or weed control at 500 g/ha in series [1] came to 100%.

With `CN(C(=O)CCS(C)(=O)=O)c1ccc2nn(-c3cncc(F)c3)cc2c1` [Example 128], in series [1], the pest or weed control at 500 g/ha came out at 100%.

In the case of `O=C(NCC(F)(F)F)c1ccc2nn(-c3cccnc3)cc2c1` [Example 3], the pest or weed control at 500 g/ha in series [1] is 100%.

With `CC(C[S+](C)[O-])C(=O)N(C)c1ccc2nn(-c3cncc(F)c3)cc2c1` (centres unmarked) [Example 122], the pest or weed control at 500 g/ha in series [1] worked out at 100%.

Turning to `CN(C(=O)CC[S+](C)[O-])c1ccc2nn(-c3cccnc3)cc2c1` (centres unmarked) [Example 123], the pest or weed control at 500 g/ha in series [1] is 90%.

Take `CSCC(C)C(=O)N(C)c1ccc2nn(-c3cnn(C)c3)cc2c1` (centres unmarked) [Example 105, N,2-Dimethyl-N-(2-(1-methyl-1H-pyrazol-4-yl)-2H-indazol-5-yl)-3-(methylthio) propanamide]: the pest or weed control at 500 g/ha in series [1] (application rate 500 g/ha, after 6 days, Chinese cabbage leaf discs, 100% = all aphids killed) stood at 90%.
